Test results taken from US7626042B2, “O-substituted hydroxyaryl derivatives” (Institute of Medicinal Molecular Design, Inc., priority 2002, dated 2009).

Tested on: NF-κB activation
Experiment: Inhibitory activity against NF-κB activation, luciferase reporter assay under TNF-α stimulation
Format: cell-based, human
Details: HepG2 cells, TNF-α 40 ng/ml, 4 hours; for inhibition at 1 µg/mL / inhibition at 10 µg/mL: Homo sapiens, read-out: Inhibitory Ratio of NF-κ B Activation(%)
In short: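 HepG2 cells transfected with firefly luciferase reporter carrying five tandem NF-κB sites, incubated 6 to 24 hours, then cultured 4 hours with TNF-α (40 ng/ml) plus test compound. Luminescent luciferase read-out; inhibition expressed relative to activity without compound.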

SMILES	Inhibitory Ratio of NF-κ B Activation(%) (Drug Concentration 1 μg/mL)	Inhibitory Ratio of NF-κ B Activation(%) (Drug Concentration 10 μg/mL)	inhibition at 1 µg/mL (Drug Concentration 1 μg/mL) [%]	inhibition at 10 µg/mL (Drug Concentration 10 μg/mL) [%]
CC(Oc1ccccc1)C(=O)Oc1ccc(Cl)cc1C(=O)Nc1cc(C(F)(F)F)cc(C(F)(F)F)c1 (stereo not shown) [Compound 15]	97.9	99.1		
CCOc1ccc(Cl)cc1C(=O)Nc1cc(C(F)(F)F)cc(C(F)(F)F)c1 [Compound 95]	31.3	71.4		
CC(C)C[C@H](NC(=O)[C@@H](N)CCCCN)C(=O)Oc1ccc(Cl)cc1C(=O)Nc1cc(C(F)(F)F)cc(C(F)(F)F)c1.Cl.Cl [Compound 40]	96.2	97.5		
O=C(Nc1cc(C(F)(F)F)cc(C(F)(F)F)c1)c1cc(Cl)ccc1OCOC(=O)N1CCC(C(=O)O)CC1 [Compound 104]	48.4	58.8		
O=C(Nc1cc(C(F)(F)F)cc(C(F)(F)F)c1)c1cc(Cl)ccc1OP(=O)([O-])O.[Na+] [Compound 52]	76.3	96.5		
COC(=O)[C@H](Cc1ccccc1)NC(=O)Oc1ccc(Cl)cc1C(=O)Nc1cc(C(F)(F)F)cc(C(F)(F)F)c1 [Compound 59]	96.2	97.8		
COC(=O)[C@H](C)NC(=O)Oc1ccc(Cl)cc1C(=O)Nc1cc(C(F)(F)F)cc(C(F)(F)F)c1 [Compound 58]	97.9	98.8		
O=C(Nc1cc(C(F)(F)F)cc(C(F)(F)F)c1)c1cc(Cl)ccc1OC(=O)N1CCCC1 [Compound 70]	48.1	89.6		
O=C(O)CN(CC(=O)O)C(=O)Oc1ccc(Cl)cc1C(=O)Nc1cc(C(F)(F)F)cc(C(F)(F)F)c1 [Compound 76]	98.9	98.2		
CCOC(=O)CN(CC(=O)OCC)C(=O)OCOc1ccc(Cl)cc1C(=O)Nc1cc(C(F)(F)F)cc(C(F)(F)F)c1 [Compound 105, 2-({N,N-bis[(ethoxycarbonyl)methyl]carbamoyl}oxy)methoxy-5-chloro-N-[3,5-bis(trifluoromethyl)phenyl]benzamide]			71.8	56
CC(=O)OCC(=O)Oc1ccc(Cl)cc1C(=O)Nc1cc(C(F)(F)F)cc(C(F)(F)F)c1 [Compound 11]	97.3	99.2		
CC(C)Oc1ccc(Cl)cc1C(=O)Nc1cc(C(F)(F)F)cc(C(F)(F)F)c1 [Compound 96]	54.1	96.1		
O=C(CCC(=O)N1CCCCC1)Oc1ccc(Cl)cc1C(=O)Nc1cc(C(F)(F)F)cc(C(F)(F)F)c1 [Compound 19]	97.9	98.8		
CC(C)(C)OC(=O)NCCCC[C@H](NC(=O)OC(C)(C)C)C(=O)Oc1ccc(Cl)cc1C(=O)Nc1cc(C(F)(F)F)cc(C(F)(F)F)c1 [Compound 33, 5-chloro-2-[N^α,N^ε-di(tert-butoxycarbonyl)-L-lysyl]oxy-N-[3,5-bis(trifluoromethyl)phenyl]benzamide]			96.6	98.6
COC(=O)C1Oc2ccc(Cl)cc2C(=O)N1c1cc(C(F)(F)F)cc(C(F)(F)F)c1 (stereo not shown) [Compound 115, 6-chloro-3,4-dihydro-4-oxo-3-[3,5-bis(trifluoromethyl)phenyl]-2H-1,3-benzoxazine-2-carboxylic acid methyl ester]			41.8	92.2
COC(=O)[C@H](COC(C)(C)C)NC(=O)Oc1ccc(Cl)cc1C(=O)Nc1cc(C(F)(F)F)cc(C(F)(F)F)c1 [Compound 60]	97.7	98.9		
O=C(Cc1ccc2c(c1)OCO2)Oc1ccc(Cl)cc1C(=O)Nc1cc(C(F)(F)F)cc(C(F)(F)F)c1 [Compound 9]	94.6	97.3		
Cc1ccc(S(=O)(=O)Oc2ccc(Cl)cc2C(=O)Nc2cc(C(F)(F)F)cc(C(F)(F)F)c2)cc1 [Compound 47]	84.7	92.5		
CSc1ccc(NC(=O)Oc2cc3ccccc3cc2C(=O)Nc2ccccc2)cc1 [Compound 66]	12.2	41.4		
COCC(=O)Oc1ccc(Cl)cc1C(=O)Nc1cc(C(F)(F)F)cc(C(F)(F)F)c1 [Compound 10]	95.3	97.4		
Cl.Cl.NCCCC[C@H](N)C(=O)Oc1ccc(Cl)cc1C(=O)Nc1cc(C(F)(F)F)cc(C(F)(F)F)c1 [Compound 34]	51.9	99.5		
O=c1oc2ccc(Cl)cc2c(=O)n1-c1cc(C(F)(F)F)cc(C(F)(F)F)c1 [Compound 113]			96.8	97.9
O=C(Nc1cc(C(F)(F)F)cc(C(F)(F)F)c1)c1cc(Cl)ccc1OS(=O)(=O)O [Compound 49]	80.1	99.0		
CC(=O)OC[C@H]1O[C@@H](Oc2ccc(Cl)cc2C(=O)Nc2cc(C(F)(F)F)cc(C(F)(F)F)c2)[C@H](OC(C)=O)[C@@H](OC(C)=O)[C@@H]1OC(C)=O [Compound 112]	47.2	49.5		
O=C(Nc1cc(C(F)(F)F)ccc1Cl)c1cc(Cl)ccc1OP(=O)([O-])O.[Na+] [Compound 125]	>99.9	>99.9		
O=C(Nc1cc(C(F)(F)F)cc(C(F)(F)F)c1)c1cc(C(F)(F)F)ccc1OC(=O)N1CCOCC1 [Compound 79, 2-(Morpholinocarbonyl)oxy-5-trifluoromethyl-N-[3,5-bis(trifluoromethyl)phenyl]-benzamide]			88.1	70.2
CC(=O)OCOc1ccc(Cl)cc1C(=O)Nc1cc(C(F)(F)F)cc(C(F)(F)F)c1 [Compound 98]	94.9	96.6		
O=C(O)C1Oc2ccc(Cl)cc2C(=O)N1c1cc(C(F)(F)F)cc(C(F)(F)F)c1 (stereo not shown) [Compound 116]			35.1	20.1
CCOC(=O)C1CCN(C(=O)OCOc2ccc(Cl)cc2C(=O)Nc2cc(C(F)(F)F)cc(C(F)(F)F)c2)CC1 [Compound 103, 5-Chloro-2-({[4-(ethoxycarbonyl)piperidin-1-yl]carbonyl}oxy)methoxy-N-[3,5-bis(trifluoromethyl)phenyl]benzamide]			40.4	45.9
